In patent publication US12042564B2, “Therapeutic solid dosage forms” (CYBIN UK LTD, priority 2020, dated 2024):
Values joined by “and” are separate entries in the source; they are usually repeats but may differ in a detail not shown here. Equal entries are not always repeated. Marks after values point to notes of the source that are not given here.

Tests used:
[1] = test system: human liver mitochondrial fraction; assay: Intrinsic clearance and half-life in human liver mitochondrial fraction; type: in vitro ADME; details: 0.5 mg/mL human liver mitochondrial fraction, 1 μM test compounds; for Half-life (min) R1: 5 μM Serotonin and Benzylamine controls, replicate 1; for Half-life (min) R3 / Half-life (min) R4 / Half-life (min) Mean: 5 μM controls; for Half-life (min) R3: replicate 3; for Half-life (min) R4: replicate 4; for Half-life (min) Mean: mean of replicates
Source text: (§1) Use of Liver Mitochondrial Fraction to Model Human Metabolism of Deuterated DMT

[2] = as above; type: in vitro ADME; details: 0.5 mg/mL human liver mitochondrial fraction; 1 μM test compounds, 5 μM controls; mean of replicates
Source text: as §1

[3] = test system: Human (mixed gender) hepatocytes; assay: In vitro intrinsic clearance of DMT and deuterated blends in human hepatocytes; type: in vitro ADME
Method: Use of Human Hepatocytes to Assess the In Vitro Intrinsic Clearance of Deuterated DMT Analogue Blends Relative to DMT
To use human hepatocytes to assess the in vitro intrinsic clearance of deuterated DMT analogue blends relative to DMT.
Test compounds were mixed with the hepatocyte suspension within a 96-well plate and incubated for up to 60 minutes at 37° C. The suspension was continuously agitated. At 7 time points, small aliquots were withdrawn, and the test compound/blend concentration therein was measured by LC-MS/MS.
Intrinsic clearance and half-life values were calculated for DMT and the 6 deuterated mixtures described above.

[4] = Plasma pharmacokinetics of test compound after oral dosing in rats; details: for mean Cmax / Determined Concentration of test compound in plasma / Determined Concentration of test compound in plasma, Mean: rat plasma; for mean Cmax: 25 mg/kg single oral gavage; for Determined Concentration of test compound in plasma / Determined Concentration of test compound in plasma, Mean: oral dosing; for Determined Concentration of test compound in plasma: individual animal; for Determined Concentration of test compound in plasma, Mean: mean of 3 animals; for systemic exposure compared to SPL026: rat, oral (PO) dosing
[5] = Plasma IAA metabolite levels after oral dosing in rats; details: for Mean IAA Cmax: rat plasma IAA (semi quantified) after 25 mg/kg PO of the compound; for Mean IAA tmax: rat plasma IAA after 25 mg/kg PO of the compound; for Estimated IAA Concentration / Estimated IAA Concentration, Mean: rat plasma, PO Dose (25 mg/kg); for Estimated IAA Concentration: individual animal; for Estimated IAA Concentration, Mean: mean of animals; for IAA biosynthesis compared to SPL026: rat, PO dosing
[6] = 10 min, fumarate salt, 25 mg/kg
[7] = 15 min, fumarate salt, 25 mg/kg
[8] = 30 min, fumarate salt, 25 mg/kg
[9] = 45 min, fumarate salt, 25 mg/kg
[10] = 60 min, fumarate salt, 25 mg/kg
[11] = 120 min, fumarate salt, 25 mg/kg
[12] = 180 min, fumarate salt, 25 mg/kg

## NCc1ccccc1 [Benzylamine, reference compound]
[1]
  Half-life (min) R1: 24.3 min
  Half-life (min) R3: 21.2 min
  Half-life (min) R4: 23.5 min
[2]
  half-life at 5 μM: 22.8 min

## O=C(O)/C=C/C(=O)O.[2H]C([2H])(Cc1c[nH]c2ccccc12)N(C)C [SPL028i, (96.6%) α,α,-dideutero-N,N-dimethyltryptamine fumarate salt]
[3]
  half-life compared to undeuterated-DMT: nearly doubling
  intrinsic clearance rate compared to undeuterated-DMT: almost halved
[1]
  Half-life (min) R1: 86.1 min
  Half-life (min) Mean: 85.0 min
  Half-life (min) R3: 82.6 min
  Half-life (min) R4: 72.1 min
[4]
  mean Cmax: 54.3 ng/mL
  systemic exposure compared to SPL026: increased systemic exposure
[4]; 1 min
  Determined Concentration of test compound in plasma: BLQ (Below the lower limit of quantification 0.310 ng/mL)
  Determined Concentration of test compound in plasma, Mean: BLQ (Below the lower limit of quantification 0.310 ng/mL)
[4]; 5 min, fumarate salt
  Determined Concentration of test compound in plasma: 0.865 ng/mL and 5.85 ng/mL and 0.688 ng/mL
[4]; 5 min
  Determined Concentration of test compound in plasma, Mean: 2.5 ng/mL
[4]; 10 min, fumarate salt
  Determined Concentration of test compound in plasma: 2.42 ng/mL and 49.2 ng/mL and 6.72 ng/mL
[4]; 10 min
  Determined Concentration of test compound in plasma, Mean: 19.4 ng/mL
[4]; 15 min, fumarate salt
  Determined Concentration of test compound in plasma: 7.46 ng/mL and 34.3 ng/mL and 19.0 ng/mL
[4]; 15 min
  Determined Concentration of test compound in plasma, Mean: 20.3 ng/mL
[4]; 30 min, fumarate salt
  Determined Concentration of test compound in plasma: 22.6 ng/mL (2×) and 46.4 ng/mL
[4]; 30 min
  Determined Concentration of test compound in plasma, Mean: 30.5 ng/mL
[4]; 45 min, fumarate salt
  Determined Concentration of test compound in plasma: 22.6 ng/mL and 33.1 ng/mL and 43.7 ng/mL
[4]; 45 min
  Determined Concentration of test compound in plasma, Mean: 33.1 ng/mL
[4]; 60 min, fumarate salt
  Determined Concentration of test compound in plasma: 30.5 ng/mL and 32.1 ng/mL and 53.1 ng/mL
[4]; 60 min
  Determined Concentration of test compound in plasma, Mean: 38.6 ng/mL
[4]; 120 min, fumarate salt
  Determined Concentration of test compound in plasma: 38.0 ng/mL and 18.7 ng/mL and 49.3 ng/mL
[4]; 120 min
  Determined Concentration of test compound in plasma, Mean: 35.3 ng/mL
[4]; Predose
  Determined Concentration of test compound in plasma: BLQ (Below the lower limit of quantification 0.310 ng/mL)
  Determined Concentration of test compound in plasma, Mean: BLQ (Below the lower limit of quantification 0.310 ng/mL)
[5]; fumarate salt
  Mean IAA Cmax: 2.933 ng/mL and 2.993 ng/mL
[5]
  Mean IAA tmax: 45 min
  IAA biosynthesis compared to SPL026: significant decrease
[5]; 1 min
  Estimated IAA Concentration: BLQ
  Estimated IAA Concentration, Mean: BLQ
[5]; 5 min, fumarate salt, 25 mg/kg
  Estimated IAA Concentration: 0.523 ng/mL and 0.874 ng/mL and 0.503 ng/mL
[5]; 5 min
  Estimated IAA Concentration, Mean: 0.633 ng/mL
[5]; [6]
  Estimated IAA Concentration: 1.24 ng/mL and 1.84 ng/mL and 1.34 ng/mL
[5]; 10 min
  Estimated IAA Concentration, Mean: 1.473 ng/mL
[5]; [7]
  Estimated IAA Concentration: 2.41 ng/mL and 0.749 ng/mL and 1.97 ng/mL
[5]; 15 min
  Estimated IAA Concentration, Mean: 1.709 ng/mL
[5]; [8]
  Estimated IAA Concentration: 3.53 ng/mL and 2.10 ng/mL and 2.18 ng/mL
[5]; 30 min
  Estimated IAA Concentration, Mean: 2.606 ng/mL
[5]; [9]
  Estimated IAA Concentration: 4.67 ng/mL and 1.95 ng/mL and 2.35 ng/mL
[5]; 45 min
  Estimated IAA Concentration, Mean: 2.993 ng/mL
[5]; [10]
  Estimated IAA Concentration: 2.78 ng/mL and 1.59 ng/mL and 1.50 ng/mL
[5]; 60 min
  Estimated IAA Concentration, Mean: 1.955 ng/mL
[5]; [11]
  Estimated IAA Concentration: 2.94 ng/mL and 1.42 ng/mL and 1.81 ng/mL
[5]; 120 min
  Estimated IAA Concentration, Mean: 2.055 ng/mL
[5]; [12]
  Estimated IAA Concentration: 2.09 ng/mL and 0.898 ng/mL and 1.45 ng/mL
[5]; 180 min
  Estimated IAA Concentration, Mean: 1.480 ng/mL
[5]; Predose
  Estimated IAA Concentration: BLQ
  Estimated IAA Concentration, Mean: BLQ

## [2H]C([2H])([2H])N(CCc1c[nH]c2ccccc12)C([2H])([2H])[2H] [SPL028vii]
[1]
  Half-life (min) Mean: 10.2 min
  Half-life (min) R3: 9.4 min
  Half-life (min) R4: 10.9 min

## O=C(O)/C=C/C(=O)O.[2H]C([2H])([2H])N(C([2H])([2H])[2H])C([2H])([2H])Cc1c[nH]c2ccccc12 [SPL028viii, (96.7%) α,α,-dideutero-N,N-bis-trideutero-dimethyltryptamine fumarate salt]
[1]
  Half-life (min) R3: 92.9 min
  Half-life (min) R4: 131.5† min
[4]
  mean Cmax: 40.77 ng/mL
  systemic exposure compared to SPL026: increased systemic exposure
[4]; 1 min, fumarate salt
  Determined Concentration of test compound in plasma: 19.8 ng/mL and BLQ (Below the lower limit of quantification 0.310 ng/mL) (2×)
[4]; 1 min
  Determined Concentration of test compound in plasma, Mean: <6.8 ng/mL
[4]; 5 min, fumarate salt
  Determined Concentration of test compound in plasma: 14.9 ng/mL and 3.11 ng/mL and 0.506 ng/mL
[4]; 5 min
  Determined Concentration of test compound in plasma, Mean: 6.2 ng/mL
[4]; 10 min, fumarate salt
  Determined Concentration of test compound in plasma: 18.0 ng/mL and 13.7 ng/mL and 11.8 ng/mL
[4]; 10 min
  Determined Concentration of test compound in plasma, Mean: 14.5 ng/mL
[4]; 15 min, fumarate salt
  Determined Concentration of test compound in plasma: 20.5 ng/mL and 20.3 ng/mL and 36.2 ng/mL
[4]; 15 min
  Determined Concentration of test compound in plasma, Mean: 25.7 ng/mL
[4]; 30 min, fumarate salt
  Determined Concentration of test compound in plasma: 9.08 ng/mL and 23.0 ng/mL and 35.7 ng/mL
[4]; 30 min
  Determined Concentration of test compound in plasma, Mean: 22.6 ng/mL
[4]; 45 min, fumarate salt
  Determined Concentration of test compound in plasma: 5.90 ng/mL and 21.7 ng/mL and 40.0 ng/mL
[4]; 45 min
  Determined Concentration of test compound in plasma, Mean: 22.5 ng/mL
[4]; 60 min, fumarate salt
  Determined Concentration of test compound in plasma: 4.43 ng/mL and 30.5 ng/mL and 62.0 ng/mL
[4]; 60 min
  Determined Concentration of test compound in plasma, Mean: 32.3 ng/mL
[4]; 120 min, fumarate salt
  Determined Concentration of test compound in plasma: 13.5 ng/mL and 31.6 ng/mL and 63.8 ng/mL
[4]; 120 min
  Determined Concentration of test compound in plasma, Mean: 36.3 ng/mL
[4]; Predose
  Determined Concentration of test compound in plasma: BLQ (Below the lower limit of quantification 0.310 ng/mL)
  Determined Concentration of test compound in plasma, Mean: BLQ (Below the lower limit of quantification 0.310 ng/mL)
[5]
  Mean IAA Cmax: 0.827 ng/mL
  Mean IAA tmax: 60 min
  IAA biosynthesis compared to SPL026: significant decrease
[5]; 1 min
  Estimated IAA Concentration: BLQ
  Estimated IAA Concentration, Mean: BLQ
[5]; 5 min, fumarate salt, 25 mg/kg
  Estimated IAA Concentration: BLQ (2×) and 0.223 ng/mL
[5]; 5 min
  Estimated IAA Concentration, Mean: <0.281 ng/mL
[5]; [6]
  Estimated IAA Concentration: BLQ (2×) and 0.430 ng/mL
[5]; 10 min
  Estimated IAA Concentration, Mean: <0.350 ng/mL
[5]; [7]
  Estimated IAA Concentration: BLQ (2×) and 0.846 ng/mL
[5]; 15 min
  Estimated IAA Concentration, Mean: <0.489 ng/mL
[5]; [8]
  Estimated IAA Concentration: BLQ (2×) and 1.04 ng/mL
[5]; 30 min
  Estimated IAA Concentration, Mean: <0.544 ng/mL
[5]; [9]
  Estimated IAA Concentration: 0.347 ng/mL and 0.821 ng/mL and 1.0 ng/mL
[5]; 45 min
  Estimated IAA Concentration, Mean: 0.733 ng/mL
[5]; [10]
  Estimated IAA Concentration: BLQ and 0.772 ng/mL and 0.883 ng/mL
[5]; 60 min
  Estimated IAA Concentration, Mean: 0.827 ng/mL
[5]; [11]
  Estimated IAA Concentration: BLQ and 0.516 ng/mL and 0.747 ng/mL
[5]; 120 min
  Estimated IAA Concentration, Mean: 0.631 ng/mL
[5]; [12]
  Estimated IAA Concentration: BLQ and 0.747 ng/mL and 0.673 ng/mL
[5]; 180 min
  Estimated IAA Concentration, Mean: 0.710 ng/mL
[5]; Predose
  Estimated IAA Concentration: BLQ
  Estimated IAA Concentration, Mean: BLQ
